Laboratory results as given in article PMC11435058, “Synthesis of New Thiazole-Privileged Chalcones as Tubulin Polymerization Inhibitors with Potential Anticancer Activities” (Pharmaceuticals, 2024).

How the values were obtained:
HT-29 = tested on: HT-29; parameters: method as in doi:10.1080/00397911.2021.1884262; details: HT-29 colorectal cancer cells; cited from earlier work
HCT-116 = tested on: HCT-116; parameters: method as in doi:10.1080/00397911.2021.1884262; details: HCT-116 colorectal cancer cells; cited from earlier work
Lovo = tested on: Lovo; parameters: method as in doi:10.1080/00397911.2021.1884262; details: Lovo colorectal cancer cells; cited from earlier work
tubulin = test: In vitro tubulin polymerization inhibition assay; type: biochemical; details: 4 mg/mL tubulin, 37°C, absorbance at 340 nm
Procedure: 4.2.2. In Vitro Tubulin Polymerization Inhibition Assay.
2p, and the reference drug CD -4) with the microtubule system. Specifically, the in vitro inhibition of tubulin polymerization was evaluated for these compounds. The standard tubulin polymerization reaction was carried out, containing 100 μL of 4 mg/mL tubulin in a buffer solution of 80 mM PIPES (pH 6.9), 0.5 mM EGTA, 2 mM MgCl2, and 1 mM GTP. Polymerization was initiated by incubating the reaction […]
Under these conditions, polymerization typically reaches a maximum absorbance of […]
growth, and steady state. In this experimental set up, an absorbance of 0.1 at 340 nm corresponds to approximately 1 mg/mL of polymerized tubulin, meaning that around […]
40% of the tubulin is polymerized, allowing for the detection of both enhancers and inhibitors of polymerization. The inhibitory effect of each compound on tubulin polymerization was quantified by determining the IC50 values, which were reported as the mean ± standard deviation from three independent experiments. […]

EKVX = test: NCI-60 anticancer screen (SRB; single dose and five doses); details: Homo sapiens
COLO 205 = test: as above; details: Homo sapiens
HCC-2998 = test: as above
HT29 = test: as above; details: Homo sapiens
SNB-75 = test: as above
SK-MEL-28 = test: as above; details: Homo sapiens
UACC-62 = test: as above; details: Homo sapiens
IGROV1 = test: as above; details: Homo sapiens
OVCAR-4 = test: as above; details: Homo sapiens
OVCAR-5 = test: as above; details: Homo sapiens
SK-OV-3 = test: as above; details: Homo sapiens
786-0 = test: as above; details: Homo sapiens
CAKI-1 = test: as above; details: Homo sapiens
TK-10 = test: as above; details: Homo sapiens
UO-31 = test: as above; details: Homo sapiens
DU-145 = test: as above; details: Homo sapiens
HS 578T = test: as above; details: Homo sapiens
BT-549 = test: as above; details: Homo sapiens
T-47D = test: as above; details: Homo sapiens, T47D

Question: With `Cc1nc(-c2ccc(C(F)(F)F)cc2)sc1C(=O)/C=C/c1ccc(C(=O)O)cc1` [V] as the compound, how does the IC50 (HT-29) read?
Answer: 7.94 µM

Question: And the IC50 (HCT-116)?
Answer: 3.12 µM

Question: What about the IC50 (Lovo) of the same compound?
Answer: 2.21 µM

Question: Which IC50 (tubulin) does the source give for `COc1ccc(/C=C\c2cc(OC)c(OC)c(OC)c2)cc1O` [CA-4, Combretastatin-A4, reference compound] here?
Answer: […]

Question: And the GI50 (EKVX)?
Answer: 0.36 µM

Question: What about the CC50 (EKVX; read-out: LC50) of the same compound?
Answer: > 100 µM

Question: What about the IC (TGI) (EKVX; read-out: TGI) of the same compound?
Answer: 82 µM

Question: And the GI50 (COLO 205; COLO 205)?
Answer: 2.49 µM

Question: And the CC50 (COLO 205; COLO 205, read-out: LC50)?
Answer: > 100 µM

Question: And the IC (TGI) (COLO 205; COLO 205, read-out: TGI)?
Answer: 43.2 µM

Question: And the GI50 (HCC-2998; Homo sapiens, HCC 2998)?
Answer: 0.05 µM

Question: And the CC50 (HCC-2998; Homo sapiens, HCC 2998, read-out: LC50)?
Answer: 26.9 µM

Question: What about the TGI (HCC-2998; five-dose, Colon Cancer HCC-2998) of the same compound?
Answer: 1.22 µM

Question: What about the GI50 (HT29; HT-29) of the same compound?
Answer: 0.66 µM

Question: What about the CC50 (HT29; HT-29, read-out: LC50) of the same compound?
Answer: 38.7 µM

Question: And the IC (TGI) (HT29; HT-29, read-out: TGI)?
Answer: 5.51 µM

Question: And the GI50 (SNB-75; Homo sapiens, SNB-75)?
Answer: 0.83 µM

Question: What about the CC50 (SNB-75; Homo sapiens, SNB-75, read-out: LC50) of the same compound?
Answer: 82.4 µM

Question: What about the TGI (SNB-75; five-dose, CNS Cancer SNB-75) of the same compound?
Answer: 24.72 µM

Question: And the GI50 (SK-MEL-28; SK-MEL-28)?
Answer: 3.16 µM

Question: And the CC50 (SK-MEL-28; SK-MEL-28, read-out: LC50)?
Answer: 90.8 µM

Question: What about the IC (TGI) (SK-MEL-28; SK-MEL-28, read-out: TGI) of the same compound?
Answer: 82.4 µM

Question: And the GI50 (UACC-62; UACC-62)?
Answer: 0.01 µM

Question: What about the IC (TGI) (UACC-62; UACC-62, read-out: TGI) of the same compound?
Answer: 80.5 µM

Question: What about the GI50 (IGROV1; IGROV-1) of the same compound?
Answer: 0.06 µM

Question: And the CC50 (IGROV1; IGROV-1, read-out: LC50)?
Answer: > 100 µM

Question: What about the IC (TGI) (IGROV1; IGROV-1, read-out: TGI) of the same compound?
Answer: 63.5 µM

Question: And the GI50 (OVCAR-4; OVCAR-4)?
Answer: 0.26 µM

Question: And the CC50 (OVCAR-4; OVCAR-4, read-out: LC50)?
Answer: 20.2 µM

Question: And the IC (TGI) (OVCAR-4; OVCAR-4, read-out: TGI)?
Answer: 0.16 µM

Question: And the GI50 (OVCAR-5; OVCAR-5)?
Answer: 0.18 µM

Question: And the CC50 (OVCAR-5; OVCAR-5, read-out: LC50)?
Answer: > 100 µM

Question: And the IC (TGI) (OVCAR-5; OVCAR-5, read-out: TGI)?
Answer: 83.2 µM

Question: What about the GI50 (SK-OV-3; SK-OV-3) of the same compound?
Answer: 28.4 µM

Question: And the CC50 (SK-OV-3; SK-OV-3, read-out: LC50)?
Answer: 89.5 µM

Question: And the IC (TGI) (SK-OV-3; SK-OV-3, read-out: TGI)?
Answer: 0.36 µM

Question: And the GI50 (786-0; 786-0)?
Answer: 0.02 µM

Question: And the CC50 (786-0; 786-0, read-out: LC50)?
Answer: > 100 µM

Question: What about the IC (TGI) (786-0; 786-0, read-out: TGI) of the same compound?
Answer: > 100 µM

Question: What about the GI50 (CAKI-1; CAKI-1) of the same compound?
Answer: 0.04 µM

Question: And the CC50 (CAKI-1; CAKI-1, read-out: LC50)?
Answer: 97 µM

Question: And the IC (TGI) (CAKI-1; CAKI-1, read-out: TGI)?
Answer: 8.22 µM

Question: And the GI50 (TK-10; TK-10)?
Answer: 0.57 µM

Question: What about the CC50 (TK-10; TK-10, read-out: LC50) of the same compound?
Answer: > 100 µM

Question: And the IC (TGI) (TK-10; TK-10, read-out: TGI)?
Answer: 11.5 µM

Question: What about the GI50 (UO-31; UO-31) of the same compound?
Answer: 0.19 µM

Question: What about the IC (TGI) (UO-31; UO-31, read-out: TGI) of the same compound?
Answer: 4.16 µM

Question: And the GI50 (DU-145; DU-145)?
Answer: 0.01 µM

Question: What about the CC50 (DU-145; DU-145, read-out: LC50) of the same compound?
Answer: > 100 µM

Question: What about the IC (TGI) (DU-145; DU-145, read-out: TGI) of the same compound?
Answer: 78.9 µM

Question: And the GI50 (HS 578T)?
Answer: 0.15 µM

Question: What about the CC50 (HS 578T; read-out: LC50) of the same compound?
Answer: > 100 µM

Question: And the IC (TGI) (HS 578T; read-out: TGI)?
Answer: 0.22 µM

Question: What about the GI50 (BT-549; BT-549) of the same compound?
Answer: 0.01 µM

Question: And the IC (TGI) (BT-549; BT-549, read-out: TGI)?
Answer: 8.09 µM

Question: What about the GI50 (T-47D) of the same compound?
Answer: 48 µM

Question: And the CC50 (T-47D; read-out: LC50)?
Answer: > 100 µM

Question: What about the IC (TGI) (T-47D; read-out: TGI) of the same compound?
Answer: 2.04 µM
